Data: US20230149420A1, “ANTI-INFLAMMATORY IMMUNOENHANCER” (SCENT SCIENCE INTERNATIONAL INC., priority 2020, published 2023)

What was measured:
[1] = system: neutrophils in the whole blood cells; experiment: ratio of neutrophils in whole blood cells, Siemens Advia 120 (Examples 12, 13); type: in vivo, C57/BL6 mice; details: 200 μl of 1% solution i.p., blood 16 hr later, vs saline
Method: About 3-month-old C57/BL6 mice were intraperitoneally injected with 200 μl of saline (control) or 1% solution of respective compounds (dissolved in saline). Blood was collected 16 hr later, and the ratio of neutrophils in the whole blood cells was measured using Siemens Advia 120.

[2] = system: basophils in the whole blood cells; experiment: ratio of basophils in whole blood cells, Siemens Advia 120 (Example 14); type: in vivo, C57/BL6 mice; details: 200 μl of 1% solution i.p., blood 16 hr later, vs saline
Method: About 3-month-old C57/BL6 mice were intraperitoneally injected with 200 μl of saline (control) or 1% solution of respective compounds (dissolved in saline). Blood was collected 16 hr later, and the ratio of basophils in the whole blood cells was measured using Siemens Advia 120.

[3] = system: basophils in the peripheral blood; experiment: number of basophils in peripheral blood, Siemens Advia 120 (Example 8); type: in vivo, C57/BL6 mice; details: 200 μl of 1% solution i.p., blood 16 hr later, vs saline
Method: About 3-month-old C57/BL6 mice were intraperitoneally injected with 200 μl of saline (control) or 1% solution of respective compounds (dissolved in saline). Blood was collected 16 hr later, and the number of basophils in the peripheral blood was measured using Siemens Advia 120.

[4] = system: lymphocytes in the peripheral blood; experiment: number of lymphocytes in peripheral blood, Siemens Advia 120 (Example 9); type: in vivo, C57/BL6 mice; details: 200 μl of 1% solution i.p., blood 16 hr later, vs saline
Method: About 3-month-old C57/BL6 mice were intraperitoneally injected with 200 μl of saline (control) or 1% solution of respective compounds (dissolved in saline). Blood was collected 16 hr later, and the number of lymphocytes in the peripheral blood was measured using Siemens Advia 120.

[5] = system: monocytes in the whole blood cells; experiment: ratio of monocytes in whole blood cells, Siemens Advia 120 (Examples 10, 11); type: in vivo, C57/BL6 mice; details: 200 μl of 1% solution i.p., blood 16 hr later, vs saline
Method: About 3-month-old C57/BL6 mice were intraperitoneally injected with 200 μl of saline (control) or 1% solution of respective compounds (dissolved in saline). Blood was collected 16 hr later, and the ratio of monocytes in the whole blood cells was measured using Siemens Advia 120.
About 3-month-old C57/BL6 mice were intraperitoneally injected with 200 μl of saline (control) or 1% allyl isothiocyanate solution (dissolved in saline). Blood was collected 16 hr later, and the ratio of monocytes in the whole blood cells was measured using Siemens Advia 120.

[6] = system: neutrophils in the peripheral blood; experiment: number of neutrophils in peripheral blood, Siemens Advia 120 (Examples 4, 5); type: in vivo, C57/BL6 mice; details: 200 μl of 1% solution i.p., blood 16 hr later, vs saline
Method: About 3-month-old C57/BL6 mice were intraperitoneally injected with 200 μl of saline (control) or 1% solution of respective compounds (dissolved in saline). Blood was collected 16 hr later, and the number of neutrophils in the peripheral blood was measured using Siemens Advia 120.

[7] = system: monocytes in the peripheral blood; experiment: number of monocytes in peripheral blood, Siemens Advia 120 (Examples 6, 7); type: in vivo, C57/BL6 mice; details: 200 μl of 1% solution i.p., blood 16 hr later, vs saline
Method: About 3-month-old C57/BL6 mice were intraperitoneally injected with 200 μl of saline (control) or 1% solution of respective compounds (dissolved in saline). Blood was collected 16 hr later, and the number of monocytes in the peripheral blood was measured using Siemens Advia 120.
About 3-month-old C57/BL6 mice were intraperitoneally injected with 200 μl of saline (control) or 1% allyl isothiocyanate solution (dissolved in saline). Blood was collected 16 hr later, and the number of monocytes in the peripheral blood was measured using Siemens Advia 120.

[8] = system: peripheral blood mononuclear cells (PBMC); experiment: scRNAseq gene expression changes in PBMC cell clusters, control vs 2MT (Example 2); type: in vivo, C57/BL6 mice; details: 2MT i.p. vs control, 16 hr
Method: About 3-month-old C57/BL6 mice were intraperitoneally administered with 200 μl of saline (control) or 1% 2MT solution (dissolved in saline). Blood was collected 16 hr later, and peripheral blood mononuclear cells (PBMC) were separated using Ficoll Paque PREMIUM 1.084 (GE Healthcare). A single cell RNA cDNA library was prepared from the separated cells by using the 10× Chromium preparation system, Chromium Single Cell 3′ Library & Gel Bead Kit v3, and sequencing was performed using the illumina HiSeq. The obtained scRNAseq data was analyzed according to the method shown in Non-Patent Literatures 4 and 5. The results of clustering using the gene expression of each cell as an index were visualized by tSNE, and the results are shown in FIG. 1A-C. […] Based on the data of scRNAseq performed in Example 1, the comparison results of the changes in the expression of each gene in the cells present in each cluster between the control conditions and the 2MT administration conditions are shown in FIG. 2. The genes whose expression changed by 2MT stimulation are shown on the top of the table, and the functional categories of the genes are shown above them. The numbers in the table indicate gene expression levels, and the density of shading indicates the degree of increase in gene expression.

[9] = system: monocytes in the peripheral blood; experiment: flow cytometry of monocytes in peripheral blood, 2MT i.p./odor, corticosterone (Example 3); type: in vivo, C57/BL6 mice
Method: (§1) About 3-month-old C57/BL6 mice were intraperitoneally administered with 200 μl of saline (control) or 1% 2MT solution (dissolved in saline). Blood was collected 16 hr later, and the number of various leukocytes in the peripheral blood was measured by a flow cytometry method by peroxidase staining and a two-angle laser flow cytometry method. The ratios of neutrophils and monocytes in the peripheral blood under respective conditions that were clarified by the measurement are shown.

[10] = system: neutrophils in the peripheral blood; experiment: flow cytometry of neutrophils in peripheral blood, 2MT i.p./odor, corticosterone (Example 3); type: in vivo, C57/BL6 mice
Method: as §1

[11] = system: peripheral blood mononuclear cells (PBMC); experiment: scRNAseq classification of PBMC after intraperitoneal 2MT (Example 1); type: in vivo, C57/BL6 mice; details: 200 μl of 1% 2MT solution i.p., blood 16 hr later
Method: About 3-month-old C57/BL6 mice were intraperitoneally administered with 200 μl of saline (control) or 1% 2MT solution (dissolved in saline). Blood was collected 16 hr later, and peripheral blood mononuclear cells (PBMC) were separated using Ficoll Paque PREMIUM 1.084 (GE Healthcare). A single cell RNA cDNA library was prepared from the separated cells by using the 10× Chromium preparation system, Chromium Single Cell 3′ Library & Gel Bead Kit v3, and sequencing was performed using the illumina HiSeq. The obtained scRNAseq data was analyzed according to the method shown in Non-Patent Literatures 4 and 5. The results of clustering using the gene expression of each cell as an index were visualized by tSNE, and the results are shown in FIG. 1A-C.

[12] = blood stress hormone (Corticosterone) after 2MT stimulation; type: in vivo
[13] = system: lymphocytes in the whole blood cells; experiment: ratio of lymphocytes in whole blood cells, Siemens Advia 120 (Example 15); type: in vivo, C57/BL6 mice; details: 1% solution i.p., blood 16 hr later, vs saline
Method: About 3-month-old C57/BL6 mice were intraperitoneally injected with […] saline (control) or 1% solution of respective compounds (dissolved in saline). Blood was collected 16 hr later, and the ratio of lymphocytes in the whole blood cells was measured using Siemens Advia 120.

[14] = intraperitoneal injection vs saline i.p., blood 16 hr later

Molecule	ratio of neutrophils in the whole blood cells [1]	number of basophils in the peripheral blood [3]	number of lymphocytes in the peripheral blood [4]	ratio of monocytes in the whole blood cells [5]	neutrophils in the peripheral blood (number) [6]	number of monocytes in the peripheral blood [7]	further results
Cc1oc2ccccc2c1C [2,3-Dimethylbenzofuran]	increases	increases	–	–	–	–	ratio of basophils in the whole blood cells [2]: increases
Cc1cccnc1C [2,3-dimethylpyridine]	–	–	increases	–	–	–	–
CC1CCC(C)O1 (stereo not drawn) [2,5-Dimethyltetrahydrofuran]	–	increases	–	increases	–	–	ratio of basophils in the whole blood cells [2]: increases
Cc1ccc(C)s1 [2,5-Dimethylthiophene]	–	increases	increases	–	increase	–	–
CC(=O)c1ncc(C)nc1C [2-Acetyl-3,5-dimethy pyrazine]	–	increases	–	–	–	increase	–
CC(=O)c1ccc(C)o1 [2-Acetyl-5-methylfuran]	increases	increases	–	–	–	–	ratio of basophils in the whole blood cells [2]: increases
CC(=O)c1cccc(C)n1 [2-Acetyl-6-methylpyridine]	–	–	increases	–	–	–	–
CC1=NCCS1 [2-Methyl-2-thiazoline]	increases	–	–	increases	increase	increase	expression levels of Ccr1, Ccr2, Ccr12, and Cxc12 (genes that promote blood cell migration) [8]: increased; expression levels of Lyz2, F13a1, Cd14, Chil3, and Hp (biological defense response) [8]: increased; expression levels of Nfkbia, Nfkbiz, and Socs3 (suppressors of NF-κB and JAK-STAT pathways) [8]: increased; number of monocytes [9, 14]: increased; number of monocytes ([9]; odor stimulation vs no odor): increased; number of neutrophils [10, 14]: increased; number of neutrophils ([10]; odor stimulation vs no odor): increased; numbers of monocytes (Mono 1, Mono 2) and dendritic cells (DC) ([11]; vs saline): drastically increases; dendritic cells in PBMC ([11]; control 0.83%): 2.2%; percentage of monocytes in PBMC ([11]; control 3.7%): 23.7%; blood stress hormone (Corticosterone) [12]: increases
CC1OCCC1S (stereo not drawn) [2-Methyl-3-tetrahydrofuranthiol]	–	increases	–	increases	–	increase	–
CCC1CSC(C)=N1 (stereo not drawn) [4-Ethyl-2-methyl-thiazoline]	increases	–	–	increases	increase	–	ratio of lymphocytes in the whole blood cells [13]: increases
O=S1(=O)CCN(c2ccccc2)CC1 [4-Phenyl-thiomorpholine-1,1-dioxide]	–	–	increases	–	–	increase	–
O=Cc1cncs1 [5-Formylthiazole]	–	–	–	–	–	–	ratio of lymphocytes in the whole blood cells [13]: increases
Cc1cncs1 [5-Methylthiazole]	increases	–	–	increases	increase	–	ratio of lymphocytes in the whole blood cells [13]: increases
COc1ccc2ncccc2c1 [6-Methoxyquinoline]	increases	increases	–	increases	increase	increase	ratio of basophils in the whole blood cells [2]: increases
C[C@]12C[C@H](O)[C@H]3[C@@H](CCC4=CC(=O)CC[C@@]43C)[C@@H]1CC[C@@H]2C(=O)CO [Corticosterone, reference compound]	–	–	–	–	–	–	number of monocytes [9, 14]: did not increase significantly; number of neutrophils [10, 14]: decreased
C1COCCN1 [Morpholine]	–	–	increases	–	increase	increase	–
(−)-Ambroxide	–	–	increases	–	–	–	–
